Results taken from publication PMC11986975, “A Cdk5 inhibitor restores cognitive function and alleviates type 2 diabetes in mice” (iScience, 2025).

What was measured:
HFD-fed mice [1] = assay: Morris water maze (MWM) in HFD mice; type: in vivo; details: i.p., both doses 20 and 40 mg/kg/day, 20 days
Method: The MWM test was conducted to evaluate memory and spatial learning in mice, using visual cues placed on the walls of a water tank. For five consecutive days, the mice were trained in the water maze, with each session involving the release of the mice from various starting points and the task of locating a hidden platform within the maze. Each day, the mice underwent four trials, following the established protocol by Charles V. Vorhees (2006). The time taken (latency) for each mouse to find the platform was measured and recorded throughout the training period.
On the sixth day, a probe test was conducted to assess reference memory. The hidden platform was removed, and the mice’s behavior was observed as they navigated the maze. The time spent in the target quadrant and the time taken to reach the former platform location were recorded. This probing phase aimed to evaluate the mice’s retention of the spatial information and memory acquired during the training sessions. The MWM test evaluated memory and spatial learning in mice using visual cues in a water tank. Over five days, mice were trained to find a platform within the tank, undergoing four trials daily as per Charles V. Vorhees' protocol. On day six, a probing experiment assessed reference memory. […] Time spent and latency to reach the target quadrant were recorded. […]

HFD-fed mice [2] = assay: Elevated plus maze (EPM) in HFD mice; type: in vivo; details: i.p., 20 days, compared to HFD group
Excerpt: In order to examine anxiety-like behavior, phenotype transgenic and knockout mice, and screen for anxiolytic and anxiogenic medicines, this maze takes advantage of the natural fear of open, high areas in rodents.[56]^,[57]
The EPM experiment is a widely utilized technique in behavioral neuroscience to evaluate anxiety-related behaviors in mice.[57] The apparatus comprises two open arms and two closed arms arranged in a plus-shaped configuration and elevated above the ground. Mice are introduced to the center of the maze, and their movements are observed over a set period of 5 min.[56]^,[58] The amount of time spent in the open arms versus the closed arms is recorded, with more time in the open arms indicating lower anxiety levels. The distance traveled in each arm were also analyzed using ANYmaze software. This method leverages the natural tendency of rodents to avoid open spaces and seek enclosed areas.

HFD-fed mice [3] = assay: Body weight in HFD-fed T2D mice; type: in vivo; details: i.p.
Method: The HFD-fed mice model received intraperitoneal injections of the compounds BLINK11 and BLINK15 at doses of 20 mg/kg/day and 40 mg/kg/day for a total of 20 days in the third month of HFD feeding. The body weight was measured at the beginning of the drug therapy, on day 0, and then again on days 10 and 20, as indicated in Figure 4A.
Two groups of four-week-old male C57BL/6J mice were established. One group (n = 8) was fed a standard laboratory mouse chow diet (Protein: 20% kcal, Carbohydrate: 70% kcal, Fat: 10% kcal), while the other group (n = 40) was placed on a HFD (Protein: 20% kcal, Carbohydrate: 20% kcal, Fat: 60% kcal).[23] Body weight, ITT, and GTT were assessed. Mice were treated with BLINK11 and BLINK15 inhibitors at 20 mg/kg and 40 mg/kg doses for 20 days. The study included six groups: Control, HFD, HFD_BLINK11_20, HFD_BLINK11_40, HFD_BLINK15_20, and HFD_BLINK15_40. […] The control used in the study are vehicle treated-control group (5% DMSO, 0.1% tween 20 and 1X PBS). The doses of 20 mg/kg and 40 mg/kg body weight were selected based on evidence from previous studies evaluating the efficacy and safety of similar kinase inhibitors.[45]^,[46]^,[47] […] The 40 mg/kg dose was selected to assess dose-dependent efficacy and represents the upper limit of tolerability based on pharmacokinetic and toxicity data.

Cdk5/p35 = Cdk5/p35 (Homo sapiens, UniProt Q00535); assay: Cdk5 kinase assay (ADP-Glo) with Cdk5/p35 complex; type: biochemical; details: 10 μM ATP, histone substrate, inhibitor 0-100 nM
Method: (§1) The test tube Cdk5 Kinase assay was performed utilizing Cdk5/p35 and Cdk5/p25 complexes as kinases, following the modified procedure outlined in a previous study,[52] using a Promega ADP-GloTM Kinase Assay kit. The reaction was carried out with 10 μM ATP and 2 μg of histone as the substrate for Cdk5 complexes. To study the inhibition patterns, 19 Cdk5 inhibitors (BLINK1-19) identified through molecular docking were added to the Cdk5 kinase reaction in increasing concentrations ranging from 0 to 100 nM. The IC50 (half-maximal inhibitory concentration) values of all the inhibitors were calculated based on Log(inhibitor) vs. normalized response using GraphPad software.

HFD-fed mice [4] = assay: Glucose tolerance test (GTT) in HFD mice; type: in vivo; details: i.p., both dosages 20 and 40 mg/kg/day, 20 days
Method: For the glucose tolerance test, 2 g/kg of glucose was utilized, and 0.75U/kg of human insulin was employed The glucose tolerance test (GTT) and insulin tolerance test (ITT) were performed in HFD mice models after 20 weeks of HFD feeding followed by 20 days of drug administration.[48] For GTT the mice were kept in a fasting period for overnight before glucose injections of 2 g/kg intraperitoneally. For ITT the mice were kept in a fasting for 6 h prior to insulin injection of 0.75 U/kg intraperitoneally. A one-touch glucometer was used to assess the blood sugar levels at various intervals (0, 60, and 120 min) following intraperitoneal infusion of both glucose and insulin.[23]^,[49]^,[50]^,[51] After 20 weeks of a HFD and 20 days of drug administration, the tests were carried out.

[5] = MTT cell toxicity assay in N2A cells; type: cell-based; details: mouse, N2A (Neuro2A) cells, all doses (25 to 100 μM)
Method: (§2) HEK293T, HepG2, and N2A cells were used in the study representing kidney, liver and neuronal cell lines respectively. The cells were cultured in DMEM supplemented with 10% fetal bovine serum and antibiotics at 37°C under 5% CO2. The cells were tested negative for mycoplasma.
(§3) To evaluate the compound toxicity for the Cdk5 inhibitors, an MTT assay was performed in HEK293T, HepG2, and N2A cells at varying concentrations. Six hours after cell seeding, the compounds were added in different amounts, and the cells were harvested after 24 h for further analysis. N2A cells were transfected using Lipofectamine-3000 reagent, co-transfecting with plasmids encoding Cdk5/p35 and Cdk5/p25 for 12 h, followed by inhibitor treatment to assess their effects in the cell culture system. The concentrations of each plasmids used was 1 μg, total of 3 μg per well for 6 well plates.

Cdk5/p25 = Cdk5/p25 (Homo sapiens, UniProt Q00535); assay: Cdk5 kinase assay (ADP-Glo) with Cdk5/p25 complex; type: biochemical; details: 10 μM ATP, histone substrate, inhibitor 0-100 nM
Method: as §1

[6] = MTT cell toxicity assay in HEK293T cells; type: cell-based; details: human, all doses (25 to 100 μM)
Method: as §2, §3

Cdk5/p35, sequence (Q00535 whole entry, species assumed): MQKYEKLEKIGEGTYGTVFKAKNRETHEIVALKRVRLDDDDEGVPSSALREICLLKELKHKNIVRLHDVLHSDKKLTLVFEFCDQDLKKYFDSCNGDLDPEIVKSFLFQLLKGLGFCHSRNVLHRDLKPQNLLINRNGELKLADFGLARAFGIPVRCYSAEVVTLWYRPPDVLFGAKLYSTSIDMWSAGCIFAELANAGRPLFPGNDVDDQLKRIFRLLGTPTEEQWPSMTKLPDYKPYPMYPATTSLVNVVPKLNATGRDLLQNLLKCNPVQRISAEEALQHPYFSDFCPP
Cdk5/p35, sequence (Q15078 whole entry partner, species assumed): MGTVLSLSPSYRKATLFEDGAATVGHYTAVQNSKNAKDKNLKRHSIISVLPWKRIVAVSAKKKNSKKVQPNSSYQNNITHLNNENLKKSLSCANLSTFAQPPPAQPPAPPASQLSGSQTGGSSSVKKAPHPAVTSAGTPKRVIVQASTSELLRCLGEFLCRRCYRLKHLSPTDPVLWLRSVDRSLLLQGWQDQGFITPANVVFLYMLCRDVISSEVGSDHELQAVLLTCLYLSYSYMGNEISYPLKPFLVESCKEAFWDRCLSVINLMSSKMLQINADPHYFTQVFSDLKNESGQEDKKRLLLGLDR
Cdk5/p25, sequence (Q00535 whole entry, species assumed): as the sequence (Q00535 whole entry, species assumed) above
Cdk5/p25, sequence (Q15078 99-307 partner limits assumed, species assumed): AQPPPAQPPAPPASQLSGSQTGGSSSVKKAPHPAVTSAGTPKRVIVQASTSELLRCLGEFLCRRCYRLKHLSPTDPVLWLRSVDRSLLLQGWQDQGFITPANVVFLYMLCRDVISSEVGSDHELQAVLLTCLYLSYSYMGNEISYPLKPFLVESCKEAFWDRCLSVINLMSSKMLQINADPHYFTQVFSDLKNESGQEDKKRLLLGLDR

Compound	Water maze time to reach the platform (spatial learning and memory) (HFD-fed mice [1])	Anxiety behavior in elevated plus maze (time in open and closed arms) (HFD-fed mice [2])	Body weight gain caused by HFD (HFD-fed mice [3]; both dosages 20 and 40 mg/kg/day, 20 days)	IC50 (Cdk5/p35) [nM]	Glucose tolerance test (GTT) (HFD-fed mice [4])	viability at 24 h [5] [%]	IC50 (Cdk5/p25) [nM]	viability at 24 h [6] [%]	Body weight gain caused by HFD (HFD-fed mice [3]; 40 mg/kg/day, 20 days (only the higher dose))
O=C(COc1ccccc1C(=O)Nc1cccc(Cl)c1Cl)Nc1ccc(N2CCOCC2)c(Cl)c1 [BLINK11, 2-(2-((3-chloro-4-morpholinophenyl)amino)-2-oxoethoxy)-N-(2,3-dichlorophenyl)benzamide]	rescue behavior	rescuing effect on anxiety behavior	rescued from the gain in body weight	17.1	significant rescue	> 50	14.7	> 50	
COc1ccc(C(=O)C[C@@]2(O)C(=O)N(Cc3ccccc3)c3ccc(Br)cc32)cc1[N+](=O)[O-] [BLINK15]	rescue behavior	no significant difference compared to the HFD group		29.3	significant rescue	> 50	12.1	> 50	significant recovery
